Measured values from PubChem BioAssay (NCI).
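Tested at 5 concentrations; 48 h exposure; 96-well plates; endpoints linearly interpolated, else capped at highest concentration. GI50: concentration for 50% inhibition of growth. TGI marks complete inhibition of growth.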

Key:
Assay in all cases: growth of human tumour cells (NCI), 48 h
SW-620 colon = system: SW-620 colon
UACC-62 melanoma = system: UACC-62 melanoma
HCT-15 colon = system: HCT-15 colon
HCC-2998 colon = system: HCC-2998 colon
KM12 colon = system: KM12 colon
OVCAR-3 ovarian = system: OVCAR-3 ovarian
BT-549 breast = system: BT-549 breast
HS 578T breast = system: HS 578T breast
NCI/ADR-RES ovarian = system: NCI/ADR-RES ovarian
SK-MEL-5 melanoma = system: SK-MEL-5 melanoma

Row | Compound | GI50 (SW-620 colon) | TGI (SW-620 colon) | GI50 (UACC-62 melanoma) | TGI (UACC-62 melanoma) | GI50 (HCT-15 colon) | TGI (HCT-15 colon) | GI50 (HCC-2998 colon) | TGI (HCC-2998 colon) | GI50 (KM12 colon) | TGI (KM12 colon) | GI50 (OVCAR-3 ovarian) | TGI (OVCAR-3 ovarian) | GI50 (BT-549 breast) | TGI (BT-549 breast) | GI50 (HS 578T breast) | TGI (HS 578T breast) | GI50 (NCI/ADR-RES ovarian) | TGI (NCI/ADR-RES ovarian) | GI50 (SK-MEL-5 melanoma) | TGI (SK-MEL-5 melanoma)
1 | CN1CCC(COc2cnc(-c3cccc(Cn4nc(-c5cccc(C#N)c5)ccc4=O)c3)nc2)CC1 | 3.55 µM | 31.3 µM | 2.07 µM | 4.54 µM | 3.47 µM | 15.5 µM | 6.34 µM | 18.7 µM | 4.36 µM | 16.5 µM | 2.45 µM | 6.06 µM | 4.66 µM | 15.2 µM | 4.63 µM | 19.8 µM | 7.41 µM | 28.1 µM | 1.49 µM | 2.85 µM
2 | C[C@]12CC[C@@H]3c4cc(OC(F)F)c(O)cc4CC[C@H]3[C@@H]1CC[C@@H]2OS(N)(=O)=O | 0.417 µM | > 100 µM | 0.403 µM | 18.2 µM | 0.458 µM | 26.8 µM | 1.94 µM | 33.4 µM | 0.545 µM | 31 µM | 0.365 µM | 16.6 µM | 2.8 µM | 45.3 µM | 0.475 µM | 48.8 µM | 0.484 µM | 25.3 µM | 0.634 µM | 13.3 µM
3 | O=C1C(Cl)=C(Sc2nnc3c4ccccc4c4ccccc4c3n2)C(=O)c2ccccc21 |  | > 65.1 µM |  | 29.8 µM |  | 42.8 µM |  | 94.2 µM |  | 30.7 µM |  | 27.2 µM |  | 32.2 µM |  | > 100 µM |  | > 86.3 µM |  | 22.4 µM
4 | O=C(O)/C=C/C(=O)N1Cc2cc3ccccc3nc2C1 |  | > 100 µM |  | > 100 µM |  | > 100 µM |  | > 100 µM |  | > 100 µM |  | > 100 µM |  | > 100 µM |  | > 100 µM |  | > 100 µM |  | > 100 µM
5 | Nc1nc2c(ncn2C2CCC(CO)O2)c(=O)n1C(=O)c1ccccc1 (centres undefined) |  | > 100 µM |  | > 100 µM |  | > 100 µM |  | > 100 µM |  | > 100 µM |  | > 100 µM |  | > 100 µM |  | > 100 µM |  | > 100 µM |  | > 100 µM
6 | C[n+]1c(/C=C/c2c[nH]c3ccccc23)ccc2ccccc21 | 4 µM | 19.4 µM | 7.31 µM | 21.1 µM | 18 µM | 53.4 µM | 10.5 µM | 23.8 µM | 4.61 µM | 22.3 µM | 7.07 µM | 26.7 µM | 18.6 µM | 34.2 µM | 13.2 µM | 33.3 µM | > 100 µM | > 100 µM | 6.15 µM | 19.6 µM
7 | C=C(C)[C@@H]1CC[C@]2(COCCC#N)CC[C@]3(C)[C@H](CC[C@@H]4[C@@](C)(CCCNCCC#N)[C@H](C(=C)C)CC[C@]43C)[C@@H]12 | 11.5 µM | 31.2 µM | 8.81 µM | 23.1 µM | 7.66 µM | 16.6 µM | 9.08 µM | 20.1 µM | 15.6 µM | > 50 µM | 9.66 µM | 22.4 µM | 24.3 µM | > 50 µM | 21.1 µM | > 50 µM | 20.7 µM | > 50 µM | 20.2 µM | > 50 µM
8 | COc1cc2nccc(Oc3ccc(NC(=O)NC4CC4)c(Cl)c3)c2cc1C(N)=O | 97.5 µM | > 100 µM | 19.1 µM | > 89.2 µM | 32 µM | > 100 µM | > 100 µM | > 100 µM | 5.5 µM | > 100 µM | 23.1 µM | > 100 µM | 5.17 µM | 27.2 µM | 14.5 µM | > 86.9 µM | 35.2 µM | > 100 µM | 40 µM | > 100 µM
9 | Cc1c(O)c2ccccc2oc1=O |  | > 100 µM |  | > 100 µM |  | > 100 µM |  | > 100 µM |  | > 100 µM |  | > 100 µM |  | > 100 µM |  | > 100 µM |  | > 100 µM |  | > 100 µM
10 | Cc1cc(Cl)cc2c(N=Nc3ccc(S(N)(=O)=O)cc3)c(O)[nH]c12 | > 25 µM | > 25 µM | > 25 µM | > 25 µM | > 25 µM | > 25 µM | > 25 µM | > 25 µM | > 25 µM | > 25 µM | > 25 µM | > 25 µM | > 25 µM | > 25 µM | > 25 µM | > 25 µM | > 25 µM | > 25 µM | > 25 µM | > 25 µM
11 | Cn1cc(C2=C(c3ccccc3[N+](=O)[O-])C(=O)NC2=O)c2ccccc21 | 3.97 µM | > 20 µM | 3.68 µM | 12.1 µM | 5.16 µM | > 25 µM | 7.79 µM | > 23.7 µM | 3.25 µM | 13.3 µM | 2.32 µM | > 21.8 µM | 5.26 µM | > 20.2 µM | 0.975 µM | > 16.9 µM | 6.32 µM | > 21.6 µM | 2.86 µM | 8.06 µM
12 | Cc1ccc(NC(=O)c2ccc(CN3CCN(C)CC3)cc2)cc1Nc1nccc(-c2cccnc2)n1 | 24.3 µM | 54.7 µM | 19.2 µM | 40.5 µM | 16.2 µM | 80.5 µM | 21.3 µM | 38.5 µM | 18.8 µM | 41.3 µM | 31.1 µM | 72.9 µM | 16.6 µM | 34.9 µM | 15 µM | 43.1 µM | 23.8 µM | 68.3 µM | 12.3 µM | 24.9 µM
13 | Nc1ccccc1NC(=O)c1ccc(CNc2nccc(-c3cccnc3)n2)cc1 | 0.518 µM | > 100 µM | 0.476 µM | 2.17 µM | 2.06 µM | > 44.1 µM | 0.785 µM | 2.59 µM | 0.886 µM | 14.1 µM | 1.33 µM | 4.62 µM | 1.9 µM | 14.8 µM | 1.06 µM | > 100 µM | 0.803 µM | > 22.9 µM | 0.381 µM | 1.15 µM
14 | CCOC(=O)c1ccccc1OC(=O)NNc1ccccc1 | 12.4 µM | > 100 µM | 0.269 µM | > 28.2 µM | 0.862 µM | > 100 µM | 0.583 µM |  | 0.173 µM | > 56.4 µM | 16.3 µM | > 100 µM | 3.56 µM | > 100 µM | > 31.9 µM | > 100 µM | 3.8 µM | > 100 µM | 1.43 µM | > 33.2 µM
